We go through nine substances from patent publication US10918727B2, “Peptide with ability to penetrate cell membrane” (ICURE BNP CO., LTD., priority 2016, dated 2021).

The nature of series [1]: Body weight-reducing effect of intranasal TCTP-PTD 13-[D-Leu-4]-OB3. The following applies: for body weight after 10 days compared with PBS or OB3 / rate of increase in body weight for 10 days compared with PBS or OB3: ICR mice, intranasal 2 mg/kg once each day for 10 days. The class given is in vivo, mouse. The text has this:
A peptide (SEQ ID NO: 124) comprising [D-Leu-4]-OB3 linked to L-PTD 13 or D-PTD 13 by a GG linker was designed. Furthermore, peptides (SEQ ID NO: 125, SEQ ID NO: 126 and SEQ ID NO: 127, respectively) comprising [D-Leu-4]-OB3 linked to each of D-TCTP-PTD 13M1, D-TCTP-PTD 13M2 or D-TCTP-PTD 13M3 by a GG linker were designed. The peptides were synthesized with a purity of 90% or higher by Peptron Inc.
4-week-old male ICR mice were used as experimental animals and divided into the following groups, each consisting of 7 animals: PBS, [D-Leu-4]-OB3, L-PTD 134D-Leu-41-OB3, and D-PTD 134D-Leu-41-OB3 groups. Each of [D-Leu-4]-OB3, L-PTD 134D-Leu-41-OB3 and D-PTD 13-[D-Leu-4]-OB3 was administered intranasally to each mouse at a dose of 2 mg/kg once each day for 10 days at a uniform time point, while a change in the body weight of each of the experimental animals was measured.

Series [2] can be described thus: Appetite-inhibiting effect (food intake) of intranasal TCTP-PTD 13-[D-Leu-4]-OB3. The class given is in vivo, mouse. Conditions: ICR mice, intranasal 2 mg/kg; for cumulative food intake compared with PBS: measured every day for 10 days. Here is the method:
In order to examine whether or not the body weight-reducing effect confirmed in Example 7-2 has a connection with a decrease in food intake, PBS, [D-Leu-4]-OB3, L-PTD 13-[D-Leu-4]-OB3 or D-PTD 13-[D-Leu-4]-OB3 was administered intranasally at a dose of 2 mg/kg, and the food intake was measured everyday for 10 days.

Series [3] relates to hair follicle and dermis of the skin (male BALB/c mice). The experiment in a line: Hair follicle penetration of FITC-labeled TCTP-PTD after transdermal administration (fluorescence microscopy). The class given is in vivo, mouse. Conditions: 100 μl of 100 μM FITC-labeled peptide on 1 cm^2, 2 hours. Here is the method:
Male BALB/c mice (7-8-week-old) were prepared, and the abdominal region of the mice was shaved. Next, the mice were anesthetized by intraperitoneal injection of urethane (1.2-1.5 g/kg), and then 100 μl of each TCTP-PTD peptide solution was applied to the abdominal region of each mouse so as to be administered transdermally. Each of the peptide solutions was applied to an area of 1 cm^2.
2 hours after transdermal administration, the skin tissue was collected, fixed with 10% formalin for about 24 hours, and then treated with 30% sucrose solution for 4 hours. The pretreated skin tissue was immersed in OCT-compound, and then treated with liquid nitrogen to prepare a frozen block. The skin tissue was sectioned to a thickness of 20 μm by use of a cryotome and attached to a slide. The slide having the skin tissue attached thereto was washed five times with PBS, and then the nucleus was stained with DAPI (blue fluorescence).
The amino terminus of L-PTD 13 or D-PTD 13 was labeled with FITC (green fluorescence), and then each PTD peptide was dissolved in PBS (phosphate buffered saline, pH 7.4) to a final concentration of 100 μM.
Male BALB/c mice (7-8-week-old) were prepared, and the abdominal region of the mice was shaved. Next, the mice were anesthetized by intraperitoneal injection of urethane (1.2-1.5 g/kg), and then 100 μl of each of the FITC-labeled L-PTD 13 or D-PTD 13 solution was applied to the abdominal region of each mouse so as to be administered transdermally. Each of the peptide solutions was applied to an area of 1 cm^2.

Series [4] deals with human bronchial epithelial cell line BEAS-2B. The experiment in a line: Cell membrane penetration of FITC-labeled L-/D-form TCTP-PTD 13 by flow cytometry. The following applies: BEAS-2B cells, 2.5 μM FITC-labeled peptide, 30 minutes. The format is cell-based. As to the method: The human bronchial epithelial cell line BEAS-2B was prepared, and the cell membrane penetration ability of the TCTP-PTD peptide according to the amino acid type was analyzed by flow cytometry. Specifically, BEAS-2B cells were seeded on a 6-well plate at a density of 8×10^5 cells/well, and then cultured in cell culture medium (BEGM) for 24 hours. After 24 hours of cell culture, each well was washed twice with PBS, and then each well was treated with FITC-labeled L-form TCTP-PTD 13 (hereinafter referred to as L-PTD 13; SEQ ID NO: 27) or FITC-labeled D-form TCTP-PTD 13 (hereinafter referred to as D-PTD 13; SEQ ID NO: 27) diluted in cell culture medium such that the concentration of each TCTP-PTD would be 2.5 μM. 30 minutes after the cells were treated with the two kinds of TCTP-PTD 13, the cells were isolated from each well by use of 0.25% trypsin, and then washed 6 times with cold PBS to remove TCTP-PTD from the cell surface.
Background: A flow cytometer gives signals particle by particle.

Series [5] deals with type 2 diabetic model mice (db/db mice). The experiment in a line: Blood glucose-lowering effect of intranasal TCTP-PTD/Ex-4 mixture in type 2 diabetic model mice after i.p. glucose. The following applies: Ex-4 10 μg/kg, 10 μM Ex-4 + 20 μM peptide, glucose 2.5 g/kg i.p., monitored 240 minutes. The class given is in vivo, mouse.
Description: Male db/db mice weighing 31-34 g were used as experimental animals. The mice were fasted overnight, and then the blood glucose level in the mice were measured using a blood glucose meter.
20 minutes after anesthesia, each of the prepared Ex-4/TCTP-PTD mixtures was administered intranasally to the mice (Ex-4 dose: 10 μg/kg), and a control group was administered intranasally with the same amount of Ex-4, and a negative control group was administered intranasally with the same amount of PBS. After 15 minutes, glucose (2.5 g/kg) was injected intraperitoneally to the mice, and the blood glucose level in the mice was monitored for 240 minutes.
Series [6] has as its system cervical cancer cell line HeLa. The experiment in a line: Cell membrane penetration of FITC-labeled TCTP-PTD peptides in HeLa cells (fluorescence reader). The class given is cell-based. Conditions: 10 μM FITC-labeled peptide, 15 minutes. As to the method: The cervical cancer cell line HeLa was prepared. To detect TCTP-PTD accumulated in cells after passage through the cell membrane, the N-terminus of the synthesized peptide was labeled with FITC (fluorescein isothicyanate). Then, the cervical cancer cell line Hela was treated with 10 μM of the FITC-labeled TCTP-PTD of SEQ ID NO: 18, SEQ ID NO: 22, SEQ ID NO: 24 or SEQ ID NO: 27 for 15 minutes. After completion of the incubation, the cells were washed three times with PBS to remove FITC-TCTP-PTD remaining on the cell membrane of the HeLa cells. 500 μl of PBS was added, and then the fluorescence intensity of the FITC was measured with a fluorescence reader at 495 nm and 517 nm.

The test system of series [7] is type 1 diabetic white rats (alloxan-induced). The experiment in a line: Pharmacodynamic profile of nasal insulin formulations in type 1 diabetic (alloxan) rats. The format is in vivo, rat. The following applies: type 1 diabetic rats. As to the method: Alloxan was injected intraperitoneally to experimental white rats to induce type 1 diabetes. One week after alloxan administration, white rats having a blood glucose level of 230-300 mg/dL were used as experimental animals.

Series [8] can be described thus: Plasma insulin concentration after intranasal administration of insulin/TCTP-PTD mixtures (ELISA). Conditions: rats, insulin 0.5 IU/kg, 50 μM insulin + 100 μM peptide, peptides compared with SEQ ID NO: 27. The source says: Male Wistar rats weighing 180-190 g were used as experimental animals and anesthetized in the same manner as described above.
(An ELISA detects its analyte on a solid surface through an enzyme-linked reagent.)

Series [9] deals with normal male white Wistar rats. The experiment in a line: Pharmacodynamic profile of nasal insulin formulations in normal white rats (blood glucose). The class given is in vivo, rat. Conditions: subcutaneous. As to the method:
After design of the nasal insulin formulations, evaluation of the pharmacodynamic profile of each nasal insulin formulation was performed in normal white rats. Specifically, male white Wistar rats weighing 165-200 g were used as experimental animals. For accuracy of evaluation, the […] were fasted overnight, and then white rats having a blood glucose level of 90-120 mg/dL in the fasted state were used in the experiment. To calculate PA (pharmacological availability), the initial blood glucose level was taken as 100%. To administer the nasal insulation formulations, the mice were anesthetized by intraperitoneal administration of the anesthetic sodium pentobarbital (dose: 65 mg/kg).

The nature of series [10]: Pharmacokinetic profile of nasal insulin formulations (plasma insulin). The following applies: rats.
In series [11] the test system is type 1 diabetic model mice (STZ-induced male ICR mice). The experiment in a line: Blood glucose-lowering effect of intranasal TCTP-PTD/insulin mixture in type 1 diabetic model mice. The class given is in vivo, mouse. The following applies: insulin 2 IU/kg, insulin:peptide 1:2, monitored 240 minutes. Here is the method: Streptozotocin (STZ) was injected intraperitoneally into male ICR mice (body weight: 33-34.5 g) four times (doses: 100, 50, 50 and 50 mg/kg) at 2-day intervals to induce type 1 diabetes. At 7 days after last administration of STZ, mice having a blood glucose level of 300-350 mg/dL were selected as experimental animals.

Non-standard residues stand in square brackets, D forms with d. No end group written: not given here.

Turning to “D-PTD 13-[D-Leu-4]-OB3: peptide (SEQ ID NO: 124) comprising [D-Leu-4]-OB3 linked to D-PTD 13 by a GG linker ([dM][dI][dI][dF][dR][dA][dL][dI][dS][dH][dK][dK]GGSCS[dL]PQT)”, in series [1], the “body weight after 10 days compared with PBS or OB3” value was “decreased” and the “rate of increase in body weight for 10 days compared with PBS or OB3” value is “lower”. Moreover, in series [2], the “total food intake after 10 days of administration” value was “decreased” and the “cumulative food intake compared with PBS” value is reported as “decreased continuously”.

Turning to “D-PTD 13: D-form TCTP-PTD 13; SEQ ID NO: 27 ([dM][dI][dI][dF][dR][dA][dL][dI][dS][dH][dK][dK])”, the “body weight-reducing and appetite-inhibiting effects, D-form vs L-form” value in series [1] (peptide linked to [D-Leu-4]-OB3, intranasal 2 mg/kg, 10 days, results of Examples 7-2 and 7-3 together) is “better effects than L-PTD 13”. In addition, the “penetration to hair follicle and dermis of the skin” value (“penetration … of the skin” below) in [3] is “reached the hair follicle and dermis of the skin”. Also, the “ability to penetrate the cell membrane (flow cytometry)” value in [4] is listed as “excellent ability to penetrate the cell membrane”.

Consider “L-PTD 13-[D-Leu-4]-OB3: peptide (SEQ ID NO: 124) comprising [D-Leu-4]-OB3 linked to L-PTD 13 by a GG linker (MIIFRALISHKKGGSCS[dL]PQT)”, for which, in [1], the “body weight after 10 days compared with PBS or OB3” value was “decreased” and the “rate of increase in body weight for 10 days compared with PBS or OB3” value is “lower”. Besides, in series [2], the “total food intake after 10 days of administration” value is reported as “decreased” and the “cumulative food intake compared with PBS” value is given as “decreased continuously”.

As to “L-PTD 13: L-form TCTP-PTD 13; SEQ ID NO: 27 (MIIFRALISHKK; PTD #27)”, in series [3], the “penetration … of the skin” value was “reached the hair follicle and dermis of the skin”. Also, in series [4], the “ability to penetrate the cell membrane (flow cytometry)” value is “excellent ability to penetrate the cell membrane”.

For the substance “SEQ ID NO: 1: variant TCTP-PTD peptide (LIIFRALISHKK; PTD #1)”, the “penetration … of the skin” value in series [3] was “reached the hair follicle and dermis of the skin”.

In the case of “SEQ ID NO: 12: variant TCTP-PTD peptide (MIIFRLAAYHKK; PTD #12)”, the “penetration … of the skin” value in series [3] is “reached the hair follicle and dermis of the skin”.

In the case of “SEQ ID NO: 17: variant TCTP-PTD peptide (MIIFRIAAYPKK; PTD #17)”, the “penetration … of the skin” value in series [3] was “reached the hair follicle and dermis of the skin”.

Take “SEQ ID NO: 27: TCTP-PTD peptide of Korean Patent No. 10-0859972, basis of the variants (MIIFRALISHKK; PTD #27)”: the “blood glucose level after i.p. glucose / blood glucose-lowering effect” value in series [5] was “increase the blood glucose-lowering effect of Ex-4”. The “fluorescence of FITC-labeled peptide in cells (cell membrane penetration)” value in series [6] is on record as “high level of fluorescence”.

As for insulin, the “AAC 0-240 min (area above the blood glucose level-time curve)” value in series [7] (nasal, insulin 2 IU/kg) is listed as 2156.65 ± 1070.68; in series [7] (subcutaneous, insulin 1 IU/kg), 26897.33 ± 772.31. Further, the PA % in series [7] (subcutaneous, insulin 1 IU/kg (reference)) came to 100%. For the same substance, in series [8], the “blood insulin concentration / insulin uptake” value is on record as “little or no change in the blood insulin concentration”. Also, the “AAC 0-180 min (area above the blood glucose level-time curve)” value in series [9] (insulin 0.5 IU/kg) was found to be 2560. Besides, the “PA % (pharmacological availability)” value in series [9] (insulin 0.5 IU/kg (reference)) was found to be 100%. For the same substance, the “BA % (relative bioavailability vs s.c. insulin)” value in [10] (nasal, insulin 5 IU/kg, listed as Free insulin) is 3.34 ± 0.38%. For the same substance, the BA % in [10] (subcutaneous, insulin 0.25 IU/kg (reference)) is listed as 100%. Also, the “change in blood glucose level” value in [11] was “no significant change in the blood glucose level”.
